Results: ChEMBL document CHEMBL2073866, “Cellular pharmacokinetic aspects of reversal effect of itraconazole on P-glycoprotein-mediated resistance of anticancer drugs” (Biol Pharm Bull, 1999)
One block for each compound: values may come before it.

What was measured:
[1] = biological target: T1, ATP-dependent translocase ABCB1 (Homo sapiens, UniProt P08183); experiment: TP_TRANSPORTER: transepithelial transport (basal to apical) in MDR1-expressing LLC-PK1 cells; assay type: functional, cell-based; settings: pig
[2] = biological target: T1, ATP-dependent translocase ABCB1; experiment: TP_TRANSPORTER: inhibition of Azidopine photoaffinity labelling (Azidopine: 0.4 uM, Daunorubicin: 400 uM) in membranes from MDR1-expressing LLC-PK1 cells; assay type: functional, cell membranes, Membrane; settings: pig, llc-pk1, 400 µM
[3] = biological target: T1, ATP-dependent translocase ABCB1; experiment: TP_TRANSPORTER: inhibition of Azidopine photoaffinity labelling (Azidopine: 0.4 uM, Doxorubicin: 400 uM) in membranes from MDR1-expressing LLC-PK1 cells; assay type: functional, cell membranes, Membrane; settings: pig, llc-pk1, 400 µM
[4] = biological target: T1, ATP-dependent translocase ABCB1; experiment: TP_TRANSPORTER: inhibition of Doxorubicin transepithelial transport (basal to apical) (Doxorubicin: 0.1 uM, Itraconazole: 100 uM) in MDR1-expressing LLC-PK1 cells; assay type: functional, cell-based; settings: pig, llc-pk1, 100 µM
[5] = biological target: T1, ATP-dependent translocase ABCB1; experiment: TP_TRANSPORTER: inhibition of Vinblastine transepithelial transport (basal to apical) (Vinblastine: 0.1 uM, Itraconazole: 100 uM) in MDR1-expressing LLC-PK1 cells; assay type: functional, cell-based; settings: pig, llc-pk1, 100 µM
[6] = biological target: T1, ATP-dependent translocase ABCB1; experiment: TP_TRANSPORTER: inhibition of Digoxin transepithelial transport (basal to apical) (Digoxin: 0.1 uM, Itraconazole: 100 uM) in MDR1-expressing LLC-PK1 cells; assay type: functional, cell-based; settings: pig, llc-pk1, 100 µM
[7] = biological target: T1, ATP-dependent translocase ABCB1; experiment: TP_TRANSPORTER: inhibition of Azidopine photoaffinity labelling in membranes from MDR1-expressing LLC-PK1 cells; assay type: functional, cell membranes, Membrane; settings: pig
[8] = biological target: T1, ATP-dependent translocase ABCB1; experiment: TP_TRANSPORTER: inhibition of Azidopine photoaffinity labelling (Azidopine: 0.4 uM, Vinblastine: 400 uM) in membranes from MDR1-expressing LLC-PK1 cells; assay type: functional, cell membranes, Membrane; settings: pig, llc-pk1, 400 µM

T1 sequence (P08183 whole entry): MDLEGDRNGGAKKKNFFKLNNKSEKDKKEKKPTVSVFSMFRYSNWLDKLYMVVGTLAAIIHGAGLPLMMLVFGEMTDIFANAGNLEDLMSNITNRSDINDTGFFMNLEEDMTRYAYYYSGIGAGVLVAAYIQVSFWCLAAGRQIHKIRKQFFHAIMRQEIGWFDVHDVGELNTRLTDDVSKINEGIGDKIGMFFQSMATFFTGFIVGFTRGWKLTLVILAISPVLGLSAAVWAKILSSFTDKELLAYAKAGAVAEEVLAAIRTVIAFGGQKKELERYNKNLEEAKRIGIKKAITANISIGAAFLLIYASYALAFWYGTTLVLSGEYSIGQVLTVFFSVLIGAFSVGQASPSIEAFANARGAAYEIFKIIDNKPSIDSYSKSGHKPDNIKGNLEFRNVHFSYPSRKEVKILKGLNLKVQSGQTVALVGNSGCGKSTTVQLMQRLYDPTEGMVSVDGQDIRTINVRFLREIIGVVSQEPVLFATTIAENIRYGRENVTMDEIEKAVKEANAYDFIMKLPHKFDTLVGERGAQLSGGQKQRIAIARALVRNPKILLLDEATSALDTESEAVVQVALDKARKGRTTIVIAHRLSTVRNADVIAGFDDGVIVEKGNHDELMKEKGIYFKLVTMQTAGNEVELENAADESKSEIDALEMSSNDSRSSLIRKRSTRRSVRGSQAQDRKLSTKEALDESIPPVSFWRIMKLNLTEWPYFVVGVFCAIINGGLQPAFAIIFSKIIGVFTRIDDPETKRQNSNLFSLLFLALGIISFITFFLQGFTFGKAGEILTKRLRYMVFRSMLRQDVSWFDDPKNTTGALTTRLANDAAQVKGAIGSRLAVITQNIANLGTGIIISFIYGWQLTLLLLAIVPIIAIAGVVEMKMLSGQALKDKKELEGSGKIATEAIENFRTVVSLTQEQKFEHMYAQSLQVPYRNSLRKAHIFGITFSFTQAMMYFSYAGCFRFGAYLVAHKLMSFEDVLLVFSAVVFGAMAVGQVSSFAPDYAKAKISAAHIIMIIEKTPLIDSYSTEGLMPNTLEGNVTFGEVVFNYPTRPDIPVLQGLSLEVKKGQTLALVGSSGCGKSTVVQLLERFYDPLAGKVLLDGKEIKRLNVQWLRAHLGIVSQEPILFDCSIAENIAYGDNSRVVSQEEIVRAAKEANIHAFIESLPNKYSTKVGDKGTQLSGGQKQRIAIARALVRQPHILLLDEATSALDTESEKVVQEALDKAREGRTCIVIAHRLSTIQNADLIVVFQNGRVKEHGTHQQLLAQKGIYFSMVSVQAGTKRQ

- Activity [1]: substrate [+]
- Activity [2]: inhibitor [+]
SMILES: COc1cccc2c1C(=O)c1c(O)c3c(c(O)c1C2=O)C[C@@](O)(C(C)=O)C[C@@H]3O[C@H]1C[C@H](N)[C@H](O)[C@H](C)O1 [DAUNORUBICIN]

- Activity [3]: inhibitor [+]
SMILES: COc1cccc2c1C(=O)c1c(O)c3c(c(O)c1C2=O)C[C@@](O)(C(=O)CO)C[C@@H]3O[C@H]1C[C@H](N)[C@H](O)[C@H](C)O1 [DOXORUBICIN]

- Activity [4]: inhibitor [+]
- Activity [5]: inhibitor [+]
- Activity [6]: inhibitor [+]
- Activity [7]: inhibitor [+]
SMILES: CCC(C)n1ncn(-c2ccc(N3CCN(c4ccc(OCC5COC(Cn6cncn6)(c6ccc(Cl)cc6Cl)O5)cc4)CC3)cc2)c1=O (stereo not drawn) [ITRACONAZOLE]

- Activity [8]: inhibitor [+]
SMILES: CC[C@]1(O)C[C@@H]2CN(CCc3c([nH]c4ccccc34)[C@@](C(=O)OC)(c3cc4c(cc3OC)N(C)[C@H]3[C@@](O)(C(=O)OC)[C@H](OC(C)=O)[C@]5(CC)C=CCN6CC[C@]43[C@@H]65)C2)C1 [VINBLASTINE]
